PMC7419507, “In vitro Cas9-assisted editing of modular polyketide synthase genes to produce desired natural product derivatives” (Nature Communications, 2020)

System: Jurkat, SKOV-3 and MESO-1 cells
Assay: Cytotoxicity assay, statements for all tested cell lines together
Assay type: cell-based
Conditions: Jurkat, SKOV-3 and MESO-1 cells, 72 h
Description: Jurkat cells were cultured in RPMI1640 medium supplemented with 10% foetal bovine serum, penicillin (50 U/ml), streptomycin (50 μg/ml), and Glutamax. SKOV-3 cells were cultured in DMEM medium supplemented with 10% fetal bovine serum, penicillin (50 U/ml), and streptomycin (50 μg/ml). MESO-1 cells were cultured in RPMI1640 medium supplemented with 10% fetal bovine serum, penicillin (50 U/ml), and streptomycin (50 μg/ml). All cell lines were seeded in a 384-well plate at a density of 1000 cells/well in 20 μl of media and incubated at 37 °C in a humidified incubator with 5% CO2. After 4 h, 2-fold dilution samples resolved in DMSO were added to the cell culture at the concentration of 0.5% (0.1 μl) and incubated for 72 h. Cell viabilities were measured using a CellTiter-Glo luminescent cell viability assay and EnVision multilabel plate reader.

## COc1cc([C@@H]2c3cc4c(cc3[C@@H](O[C@@H]3O[C@@H]5CO[C@@H](C)O[C@H]5[C@H](O)[C@H]3O)[C@H]3COC(=O)[C@H]23)OCO4)cc(OC)c1O [etoposide, reference compound]
  Effect on cell viability, in words: typical cytotoxic activities
